# In patent US11618883B2, “Method for producing retinal pigment epithelial cells” (SUMITOMO PHARMA CO., LTD., priority 2017, dated 2023):
# Legend:
# [1] = test system: human iPS cells (1231A3 line); test: Production of RPE cells from iPS cells with a ROCK inhibitor in the second step; visual observation of brown-black cell population; assay type: cell-based; settings: for concentration at which emergence of a brown-black cell population could be visually confirmed: second step
# Protocol: 2014 Jan. 8; 4: 3594”. The medium used was […] A[…] medium (Ajinomoto Co., Inc.) (hereinafter AK03 medium). […] On the next day of seeding, FGF receptor inhibitor PD173074 (SIGMA) (final concentration 100 nM) was added to the A[…] medium (start of the first step), the medium was exchanged with A[…] medium added with an FGF receptor inhibitor every other day, and the cells were exposed to the FGF receptor inhibitor for 6 days in total (completion of the first step). […] On the first day of culture, A[…] (final concentration 10 μM) or A[…] medium without addition of Y-27632 as a comparison target was used. […] 2014 Jan. 8; 4: 3594”. The medium used was […] A[…] medium (Ajinomoto Co., Inc.) (hereinafter A[…] medium). […] On the next day of seeding, FGF receptor inhibitor PD173074 (SIGMA) (final concentration 100 nM) or MEK inhibitor PD0325901 (SIGMA) (final concentration 1 μM) was added to the A[…] medium (start of the first step), the medium was exchanged with A[…] medium added with an FGF receptor inhibitor or MEK inhibitor every other day, and the cells were exposed to FGF receptor inhibitor or MEK inhibitor for 6 days in total (completion of the first step). […] In the case of 1231A3 line, on the first day of culture, A[…] to a final concentration of 1 μM, 3 μM, 10 μM, 30 μM or 100 μM or, as a comparison target, A[…] medium without addition of Y-27632 was used. […] 2014 Jan. 8; 4: 3594”. The medium used was […] A[…] medium (Ajinomoto Co., Inc.) (hereinafter A[…] medium). […] On the next day of seeding, FGF receptor inhibitor PD173074 (SIGMA) (final concentration 100 nM) was added to the A[…] medium (start of the first step), the medium was exchanged every other day using A[…] medium added with FGF receptor inhibitor, and the cells were exposed to FGF receptor inhibitor for 6 days in total (completion of the first step). […] In the case of 1231A3 line, on the first day of culture, A[…] medium added with ROCK inhibitor Fasudil (Wako Pure Chemical Industries, Ltd.) to a final concentration of 10 μM, 30 μM or 100 μM or, as a comparison target, A[…] medium without addition of Fasudil was used.
# [2] = test system: human iPS cells (QHJI01 line); test: Production of RPE cells from iPS cells with a ROCK inhibitor or caspase inhibitor in the second step; visual observation of brown-black cell population; assay type: cell-based
# [3] = test system: human iPS cells (QHJI01 line); test: Differentiation induction effect of Nodal and/or Wnt signal transduction pathway inhibitor in the second step; assay type: cell-based; settings: for emergence of cells showing typical characteristics of RPE cell: second step days 1-12 with 10 μM Y-27632 plus 5 μM SB-431542 and/or 3 μM CKI-7, first step 1 μM PD0325901, day 43
# Protocol: Production of retinal pigment epithelial (RPE) cells including an MEK inhibitor treatment step was performed as follows. iPS cells under culture for maintaining undifferentiated state were treated with 0.5×TRYPLE™ Select cell dissociation solution (mixture of equal amounts of TRYPLE™ Select cell dissociation solution (Life Technologies) and 0.5 mM EDTA/PBS(−)), dissociated using a cell scraper, dispersed to single cells by pipetting, seeded in a 6-well culture plate coated with IMATRIX™-511 laminin 511 E8 fragment (Nippi) (0.5 μg/cm^2) at 2.0×10^4 cells per 1 well and cultured in a ROCK inhibitor [10 μM Y-27632 (Wako Pure Chemical Industries, Ltd.)]-containing AK03N medium under 37° C., 5% CO2 conditions. On the next day of seeding, PD0325901 (SIGMA) (final concentration 1 μM) as MEK inhibitor was added to the AK03N medium (start of the first step) and the cells were exposed thereto for 6 days (completion of the first step). Thereafter, the cells were treated with 0.5×TRYPLE™ Select cell dissociation solution, dissociated using a cell scraper, dispersed to single cells by pipetting, seeded in a 12-well culture plate coated with IMATRIX™-511 laminin 511 E8 fragment (0.5 μg/cm^2) at 0.8×10^5 cells per 1 well and cultured under 37° C., 5% CO2 conditions (start of the second step). In the second step, the following 3 kinds of media were used. […]
# RPE65, BEST1, CRALBP = test: RT-PCR of retinal pigment epithelial cell markers after MEK inhibitor or FGF receptor inhibitor treatment step; assay type: cell-based, human; settings: first step 6 days (1 μM PD0325901 or 100 nM PD173074); 1231A3 line; day 43; bands very thin when untreated
# Protocol: 2014 Jan. 8; 4: 3594”. The medium used was […] A[…] medium (Ajinomoto Co., Inc.) (hereinafter A[…] medium). […] After observation on day 43 of culture, the cells were collected, RNA was extracted and RT-PCR was performed. RNEASYTM Micro Kit (QIAGEN) was used for RNA extraction, Oligo(dT)12-18Primer (Invitrogen) and SUPERSCRIPTTM III Reverse Transcriptase (Invitrogen) were used for reverse transcription reaction, and BLEND TAQTM-Plus-(TOYOBO) was used for PCR. The primer sequences of RPE65, BEST1, CRLBP, GAPDH are as described below. […] NO: 1), […] NO: 2), […] NO: 3), […] NO: 4), CRALBP-[…] NO: 5), CRALBP-[…] NO: 6), […] NO: 7), […] NO: 8). The number of cycles of the PCR reaction was 30 cycles for RPE65, BEST1, GAPDH, and 35 cycles for CRALBP. PCR products were detected as a single band by agarose gel electrophoresis at near 369 bp for RPE65, near 261 bp for BEST1, near 341 bp for CRALBP, and near 452 bp for GAPDH. As a positive control, primary human RPE (hRPE) was used and, as a negative control, iPS cells (undifferentiated iPSC) cultured under conditions for maintaining undifferentiated state were used.
# [4] = test system: human iPS cells (201B7, 1231A3, Ff-I01, QHJI01 lines); test: Production of RPE cells including MEK inhibitor or FGF receptor inhibitor treatment step (first step); observation of brown-black cell population; assay type: cell-based; settings: for concentrations at which emergence of a brown-black cell population could be confirmed over a wide area: first step 6 days, QHJI01 line, day 36 and day 49 of culture; for emergence of RPE cells showing typical characteristics of RPE cell: 38 to 47 days of culture
# Excerpt: In one embodiment, to study the effect of the FGF receptor inhibitor in a medium free of a factor for maintaining undifferentiated state (bFGF), STEMSURE™ hPSC Medium Δ (Wako Pure Chemical Industries, Ltd.) (hereinafter STEMSURE™ hPSC Medium Δ w/o bFGF) not added with bFGF was used.
# 2014 Jan. 8; 4: 3594”. The medium used was STEMFIT™ AK03N medium (Ajinomoto Co., Inc.) (hereinafter AK03N medium).
# [5] = first step 6 days (1 μM PD0325901 or 100 nM PD173074), 201B7 and 1231A3 lines
# [6] = first step 6 days (1 μM PD0325901 or 100 nM PD173074), 1231A3 line, day 43 of culture
# [7] = first step 6 days (1 μM PD0325901 or 100 nM PD173074), Ff-I01 and QHJI01 lines, day 43 of culture
compound,measurement,setting,value
"C[C@@H](N)[C@H]1CC[C@H](C(=O)Nc2ccncc2)CC1 [Y-27632, trans-4-[(1R)-1-aminoethyl]-N-4-pyridinylcyclohexanecarboxamide]",emergence of a brown-black cell population,"[1]; 10 μM in second step (days 1-13) after FGF receptor inhibitor (100 nM PD173074) first step, day 42 of culture",could be visually confirmed
same,concentration at which emergence of a brown-black cell population could be visually confirmed,"[1]; tested 1-100 μM, first step FGF receptor inhibitor or MEK inhibitor, day 48 of culture",not less than 10 μM
same,exposure period at which emergence of a brown-black cell population could be visually confirmed,"[2]; 10 μM in second step, tested 3-20 days, first step MEK inhibitor, day 49 of culture",not less than 6 days
same,emergence of a brown-black cell population,"[2]; 10 μM, 3 days of exposure in second step, first step MEK inhibitor, day 49 of culture",confirmed only slightly
same,emergence of a brown-black cell population,"[2]; low concentration (1 μM) in second step, 2.0×10^6 cells per well (10 times general number), first step FGF receptor inhibitor or MEK inhibitor, day 50",could be visually confirmed
same,concentration at which emergence of a brown-black cell population could be visually confirmed,"[2]; second step, tested 1-100 μM, first step FGF receptor inhibitor or MEK inhibitor, day 50 of culture",not less than 3 μM
"NC(=O)c1ccc(-c2nc(-c3ccc4c(c3)OCO4)c(-c3ccccn3)[nH]2)cc1 [NODALi, 4-[4-(1,3-Benzodioxol-5-yl)-5-(pyridin-2-yl)-1H-imidazol-2-yl]benzamide]",emergence of cells showing typical characteristics of RPE cell,[3],same level
"O=C(NOC[C@H](O)CO)c1ccc(F)c(F)c1Nc1ccc(I)cc1F [PD0325901, N-[(2R)-2,3-Dihydroxypropoxy]-3,4-difluoro-2-[(2-fluoro-4-iodophenyl)amino]-benzamide]","RT-PCR bands of retinal pigment epithelial cell markers RPE65, BEST1, CRALBP","RPE65, BEST1, CRALBP",clear bands could be confirmed
same,emergence of a brown-black cell population,"[4]; 1 μM PD0325901, exposure for 3 days and 6 days, 1231A3 line, day 37 of culture",could be confirmed over a wide area
same,emergence of colored cell population,"[4]; 1 μM PD0325901, exposure for 13 days, 1231A3 line, day 37 of culture",sufficient emergence of colored cell population was also confirmed
same,cells showing typical characteristics of RPE cell,"[4]; 1 μM PD0325901, exposure for one day, 1231A3 line, day 37 of culture",almost no cell
same,emergence of a brown-black cell population,"[4]; PD0325901 1 μM (AK03 medium) or 0.03 μM (ESSENTIAL8 medium), 6 days first step, 201B7 and 1231A3 lines, 38 to 42 days of culture",could be confirmed over a wide area
same,concentrations at which emergence of a brown-black cell population could be confirmed over a wide area,"[4]; PD0325901, all concentrations studied",0.25 to 4 µM
same,emergence of RPE cells showing typical characteristics of RPE cell,[4]; [5],could be confirmed
same,emergence of a brown-black cell population,[4]; [6],could be confirmed over a wide area
same,emergence of a brown-black cell population,[4]; [7],could be confirmed over a wide area
same,emergence of a brown-black cell population,"[4]; first step 6 days: 1 μM PD0325901, 1.5, 3, 6 μM PD184352, 5, 10 μM U0126, 0.3 μM TAK-733, 0.3 μM AZD-8330, QHJI01 and 1231A3 lines, day 49 and day 50",could be confirmed over a wide area
"O=S(=O)(c1cccc2cnccc12)N1CCCNCC1 [Fasudil, 1-(5-oquinolinesulfonyl)homopiperazine]",concentration at which emergence of a brown-black cell population could be visually confirmed,"[1]; tested 10, 30, 100 μM, 2.0×10^6 cells per well, first step FGF receptor inhibitor, day 41 of culture",not less than 10 μM
same,emergence of a brown-black cell population,"[2]; 10 μM in second step, 1.0×10^6 cells per well, first step FGF receptor inhibitor, day 48 of culture",could be visually confirmed
"CCN(CC)CCCCNc1ncc2cc(-c3cc(OC)cc(OC)c3)c(NC(=O)NC(C)(C)C)nc2n1 [PD173074, N-[2-[[4-(Diethylamino)butyl]amino]-6-(3,5-dimethoxyphenyl)pyrido[2,3-d]pyrimidin-7-yl]-N′-(1,1-dimethylethyl)urea]","RT-PCR bands of retinal pigment epithelial cell markers RPE65, BEST1, CRALBP","RPE65, BEST1, CRALBP",clear bands could be confirmed
same,emergence of a brown-black cell population,"[4]; PD173074 100 nM, 6 days first step, AK03, ESSENTIAL 8 or STEMSURE hPSC Medium Δ w/o bFGF, 201B7 and/or 1231A3 line, 38 to 42 days of culture",could be confirmed over a wide area
same,concentrations at which emergence of a brown-black cell population could be confirmed over a wide area,"[4]; PD173074, all concentrations studied",0.025 to 0.4 µM
same,emergence of RPE cells showing typical characteristics of RPE cell,[4]; [5],could be confirmed
same,emergence of a brown-black cell population,[4]; [6],could be confirmed over a wide area
same,emergence of a brown-black cell population,[4]; [7],could be confirmed over a wide area
same,emergence of a brown-black cell population,"[4]; first step 6 days: 100 nM PD173074, 5, 10, 20 μM SU5402, QHJI01 and 1231A3 lines, day 49 of culture",could be confirmed over a wide area
"NCCNS(=O)(=O)c1ccc(Cl)c2ccncc12 [WNTi, N-(2-Aminoethyl) chloroisoquinoline-8-sulfonamide]",brown-black area in the whole well,"[3]; second step days 1-12, single agent 3 μM CKI-7 with 10 μM Y-27632, day 43",decreased
same,emergence of cells showing typical characteristics of RPE cell,[3],sufficient number of cells
